Results published in patent US20230373985A1 (Origenis Gmbh, priority 2020, published 2023).

Legend:
[1] = target: T1, wt human JAK1, catalytic site (Homo sapiens, UniProt P23458); assay: HTRF KinEASE assay, JAK1; type: biochemical; settings: 2.5 μM ATP; read-out: IC50, Activity Toward JAK1
T1 construct: wt human JAK1, catalytic site; purchased ThermoFisher
Method in brief: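 Two-step HTRF KinEASE assay: compound, kinase/biotinylated TK substrate and ATP were incubated at least 30 min at room temperature. Antibody plus streptavidin-XL665 was then added and plates were read after 60 min. Inhibition was derived from emission ratios according to the kit protocol.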

[2] = target: T2, wt human TYK2, catalytic site (Homo sapiens, UniProt P29597); assay: HTRF KinEASE assay, TYK2; type: biochemical; settings: 1 μM ATP; read-out: IC50, Activity Toward TYK2
T2 construct: wt human TYK2, catalytic site; purchased SignalChem
T2 sequence (P29597 897-1176 limits assumed): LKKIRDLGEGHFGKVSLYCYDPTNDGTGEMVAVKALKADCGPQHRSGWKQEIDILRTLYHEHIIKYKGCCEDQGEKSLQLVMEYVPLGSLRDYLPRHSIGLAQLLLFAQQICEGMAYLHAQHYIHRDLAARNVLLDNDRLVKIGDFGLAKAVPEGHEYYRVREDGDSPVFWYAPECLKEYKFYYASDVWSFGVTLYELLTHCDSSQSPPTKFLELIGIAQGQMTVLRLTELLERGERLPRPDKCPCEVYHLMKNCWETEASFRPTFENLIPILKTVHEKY
Method in brief: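 HTRF KinEASE-TK readout with 1 μM biotinylated TK substrate in 1× kinase buffer, ≥30 min at room temperature, then antibody/streptavidin-XL665 detection for 60 min. TYK2 at 2 nM with 1 μM ATP; JAK2 at 1 nM with 100 μM ATP. Analysis uses emission ratios.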

T1 sequence (P23458 875-1153 limits assumed): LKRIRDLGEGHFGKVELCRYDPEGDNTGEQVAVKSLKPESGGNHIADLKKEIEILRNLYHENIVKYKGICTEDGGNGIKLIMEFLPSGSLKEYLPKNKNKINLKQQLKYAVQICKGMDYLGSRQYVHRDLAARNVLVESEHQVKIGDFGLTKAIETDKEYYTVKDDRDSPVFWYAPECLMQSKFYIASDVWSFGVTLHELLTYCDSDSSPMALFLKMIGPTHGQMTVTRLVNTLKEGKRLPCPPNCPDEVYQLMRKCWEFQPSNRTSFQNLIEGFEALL

IC50 [1] [nM] | IC50 [2] [nM] | Compound
10 to 100 | 10 to 100 | CN1CCCN(C(=O)c2ccc(Nc3nn(-c4c(Cl)cccc4Cl)nc3C(N)=O)nc2)CC1 [compound 150, 2-(2,6-dichlorophenyl)-5-((5-(4-methyl-1,4-diazepane-1-carbonyl)pyridin-2-yl)amino)-2H-1,2,3-triazole-4-carboxamide]
100 to 1000 | 100 to 1000 | CN(C)C1CCN(C(=O)c2ccc(Nc3cn(-c4c(Cl)cccc4Cl)nc3C(N)=O)nc2)CC1 [compound 442, 1-(2,6-dichlorophenyl)-4-((5-(4-(dimethylamino)piperidine-1-carbonyl)pyridin-2-yl)amino)-1H-pyrazole-3-carboxamide]
100 to 1000 | 100 to 1000 | Cc1cc(C)n(-c2ccc(Nc3cn(-c4c(Cl)cccc4Cl)nc3C(N)=O)cn2)n1 [compound 398, 1-(2,6-dichlorophenyl)-4-((6-(3,5-dimethyl-1H-pyrazol-1-yl)pyridin-3-yl)amino)-1H-pyrazole-3-carboxamide]
10 to 100 | 10 to 100 | COCCNC(=O)c1ccc(Nc2cn(-c3c(Cl)cccc3Cl)nc2C(N)=O)cc1 [compound 419, 1-(2,6-dichlorophenyl)-4-((4-((2-methoxyethyl)carbamoyl)phenyl)amino)-1H-pyrazole-3-carboxamide]
100 to 1000 | 100 to 1000 | NC(=O)c1nn(-c2c(Cl)cccc2Cl)nc1Nc1ccc(N2CCOCC2)cn1 [compound 143, 2-(2,6-dichlorophenyl)-5-((5-morpholinopyridin-2-yl)amino)-2H-1,2,3-triazole-4-carboxamide]
100 to 1000 | 10 to 100 | Cn1cc(C(F)(F)F)nc1-c1ccc(Nc2nn(-c3c(Cl)cccc3Cl)nc2C(N)=O)cc1 [compound 115, 2-(2,6-dichlorophenyl)-5-((4-(1-methyl-4-(trifluoromethyl)-1H-imidazol-2-yl)phenyl)amino)-2H-1,2,3-triazole-4-carboxamide]
100 to 1000 | 100 to 1000 | NC(=O)c1nn(-c2c(Cl)cccc2Cl)cc1Nc1ccc(CC(=O)N2CC(F)C2)nc1 [compound 441, 1-(2,6-dichlorophenyl)-4-((6-(2-(3-fluoroazetidin-1-yl)-2-oxoethyl)pyridin-3-yl)amino)-1H-pyrazole-3-carboxamide]
< 10 | 10 to 100 | COCCNC(=O)c1ccc(Nc2nn(-c3c(Cl)cccc3Cl)nc2C(N)=O)cc1 [compound 123, 2-(2,6-dichlorophenyl)-5-((4-((2-methoxyethyl)carbamoyl)phenyl)amino)-2H-1,2,3-triazole-4-carboxamide]
< 10 | < 10 | NC(=O)c1nn(-c2c(Cl)cccc2Cl)nc1Nc1ccc(-c2nc(C(F)(F)F)cn2CCO)cc1 [compound 112, 2-(2,6-dichlorophenyl)-5-((4-(1-(2-hydroxyethyl)-4-(trifluoromethyl)-1H-imidazol-2-yl)phenyl)amino)-2H-1,2,3-triazole-4-carboxamide]
10 to 100 | 10 to 100 | NC(=O)c1nn(-c2c(Cl)cccc2Cl)nc1Nc1cnn(CC(=O)N2CCOCC2)c1 [compound 168, 2-(2,6-dichlorophenyl)-5-((1-(2-morpholino-2-oxoethyl)-1H-pyrazol-4-yl)amino)-2H-1,2,3-triazole-4-carboxamide]
100 to 1000 | 10 to 100 | NC(=O)c1nn(-c2c(Cl)cccc2Cl)cc1Nc1ccc(C(=O)N2CC(F)(F)C(F)(F)C2)nc1 [compound 362, 1-(2,6-dichlorophenyl)-4-((6-(3,3,4,4-tetrafluoropyrrolidine-1-carbonyl)pyridin-3-yl)amino)-1H-pyrazole-3-carboxamide]
10 to 100 | < 10 | Cn1cc(C(F)(F)F)nc1-c1ccc(Nc2cn(-c3c(Cl)cccc3Cl)nc2C(N)=O)cc1 [compound 294, 1-(2,6-dichlorophenyl)-4-((4-(1-methyl-4-(trifluoromethyl)-1H-imidazol-2-yl)phenyl)amino)-1H-pyrazole-3-carboxamide]
10 to 100 | < 10 | N#Cc1cccc(Cl)c1-n1cc(Nc2ccc(C(=O)N3CC[C@@H](F)C3)cc2)c(C(N)=O)n1 [compound 459, 1-(2-Chloro-6-cyano-phenyl)-4-[4-((R)-3-fluoro-pyrrolidine-1-carbonyl)-phenylamino]-1H-pyrazole-3-carboxylic acid amide]
10 to 100 | 10 to 100 | CN(C)CCc1nnnn1-c1ccc(Nc2cn(-c3c(Cl)cccc3Cl)nc2C(N)=O)cc1 [compound 273, 1-(2,6-dichlorophenyl)-4-((4-(5-(2-(dimethylamino)ethyl)-1H-tetrazol-1-yl)phenyl)amino)-1H-pyrazole-3-carboxamide]
100 to 1000 | 100 to 1000 | Cc1ccn(-c2ccc(Nc3cn(-c4c(Cl)cccc4Cl)nc3C(N)=O)cc2)n1 [compound 75, 1-(2,6-dichlorophenyl)-4-((4-(3-methyl-1H-pyrazol-1-yl)phenyl)amino)-1H-pyrazole-3-carboxamide]
10 to 100 | 10 to 100 | COCCc1nc(C(F)(F)F)nn1-c1ccc(Nc2cn(-c3c(Cl)cccc3Cl)nc2C(N)=O)cc1 [compound 330, 1-(2,6-dichlorophenyl)-4-((4-(5-(2-methoxyethyl)-3-(trifluoromethyl)-1H-1,2,4-triazol-1-yl)phenyl)amino)-1H-pyrazole-3-carboxamide]
100 to 1000 | 10 to 100 | NC(=O)c1nn(-c2c(Cl)cccc2Cl)cc1Nc1ccc(C(=O)N2CC[C@H](F)C2)cn1 [compound 367, (S)-1-(2,6-dichlorophenyl)-4-((5-(3-fluoropyrrolidine-1-carbonyl)pyridin-2-yl)amino)-1H-pyrazole-3-carboxamide]
100 to 1000 | 100 to 1000 | CC(F)(F)c1nnnn1-c1ccc(Nc2cn(-c3c(Cl)cccc3Cl)nc2C(N)=O)cn1 [compound 460, 1-(2,6-dichlorophenyl)-4-((6-(5-(1,1-difluoroethyl)-1H-tetrazol-1-yl)pyridin-3-yl)amino)-1H-pyrazole-3-carboxamide]
100 to 1000 | 100 to 1000 | Cc1cc2nnc(-c3ccc(Nc4cn(-c5c(Cl)cccc5Cl)nc4C(N)=O)cn3)n2c(C)n1 [compound 470, 1-(2,6-dichlorophenyl)-4-((6-(5,7-dimethyl-[1,2,4]triazolo[4,3-c]pyrimidin-3-yl)pyridin-3-yl)amino)-1H-pyrazole-3-carboxamide]
100 to 1000 | 10 to 100 | CC(C)(C)NC(=O)c1ccc(Nc2cn(-c3c(Cl)cccc3Cl)nc2C(N)=O)cc1F [compound 28, 4-((4-(tert-butylcarbamoyl)-3-fluorophenyl)amino)-1-(2,6-dichlorophenyl)-1H-pyrazole-3-carboxamide]
100 to 1000 | 100 to 1000 | Cc1nc2cc(Nc3cn(-c4c(Cl)cccc4Cl)nc3C(N)=O)ccc2n1C [compound 43, 1-(2,6-dichlorophenyl)-4-((1,2-dimethyl-1H-benzo[d]imidazol-5-yl)amino)-1H-pyrazole-3-carboxamide]
100 to 1000 | 100 to 1000 | CC(C)(C)OC(=O)N1CCCC(NC(=O)c2ccc(Nc3cn(-c4c(Cl)cccc4Cl)nc3C(N)=O)cc2)C1 (centres unmarked) [compound 33, tert-butyl_3-(4-((3-carbamoyl-1-(2,6-dichlorophenyl)-1H-pyrazol-4-yl)amino)benzamido)piperidine-1-carboxylate]
